Here are results for two compounds from patent US20020039567A1, “Methods of treating bone or cartilage conditions by the administration of creatine” (priority 1998, published 2002).

One data set deals with embryonic rat femora. The experiment in a line: Embryonic rat femora wet weight in organ culture. How it is done: The rats were sacrificed on the 17th to 18th day of pregnancy. The embryos were aseptically removed from the uterus, and both femora were carefully dissected free into sterile TBSS under the stereo-microscope. Organ-culture of the rudiments was performed in 10 cm^2 plastic culture dishes. A Teflon carrier with a nylon mesh (20 μm pore size) was mounted in the dish, keeping the explants floating and ensuring optimal gas exchange and nutritional conditions. The right and the left femora from each animal were randomly assigned to the experimental or control group. The control groups were kept in 3 ml B with 50 μg/ml ascorbate. In the experimental group, the growth medium was supplemented with either 10 mM creatine, 20 mM creatine, 1 mM GPA, 5 mM GPA, or 10 mM GPA. The growth medium was renewed every second day until day 10. Culture was carried out at 37.5° C. and in a 5% CO2 atmosphere. At 10 days, the wet weight of each femora was determined on a microbalance. The result of each experimental femora was expressed relative to its collateral control. For the histological evaluation, the femora as fixed in 4% formaldehyde, dehydrated, and embedded in methylmethacrylate. The 6 μm sections were stained by Pentachrome-Movat.

Data set [1] has as its system osteoblasts (monolayer culture). Briefly: Metabolic activity (MTT), monolayer osteoblast cell culture. It counts as cell-based, rat. Particulars: for metabolic activity measured by the MTT reaction / MTT reaction: preliminary. How it is done:
This isolation technique is based on the ability of osteoblasts to migrate from bone onto a substratum. Parietal and frontal calvariae (4 per animal) were aseptically explanted from 6 day-old IcoIbm rats. The calvariae were placed in Tyrode's balanced salt solution, calcium and magnesium free (TESS). The periosteum was enzymatically removed with 0.05% trypsin and 0.02% collagenase A (0.76 U/mg) dissolved in TBSS (40 calvaria/20 ml). The calvariae were shaken for 70 minutes in a waterbath at 37° C. They were washed with TESS and then transferred to 60 mm culture dishes (40 calvariae/dish) containing 5 ml of 0.02% collagenase A (0.76 U/mg) in culture medium BGJb Fitton-Jackson modification and placed in the incubator for 4 hours. The calvariae were then washed with culture medium B supplemented with 10% foetal calf serum (FCS). The calvariae were transferred into 60 mm culture dishes (4 frontal and 4 parietal/dish). The growth medium supplemented with 10% FCS and 50 μg/ml ascorbate was completely changed every 48 hours. The culture was kept for 3 weeks.
After 3 weeks the migrated cells were harvested. The dish was washed with TESS, and 5 ml of TESS containing 0.05% trypsin and 0.02% collagenase A (0.76 U/mg) was added. After 1 hour in the incubator, the dish was washed with culture medium BGJb supplemented with 10% FCS. The dishes containing the calvariae and cells were rinsed with serum containing media BGJb. The cells obtained were filtered through a 40 μm nylon mesh to remove bone debris and cell aggregates. The suspended cells were centrifuged at 600 g for 5 minutes. The cell pellet was resuspended in serum containing medium BGJb and centrifuged. The viability of the resuspended cells was examined by the dye exclusion of 0.4% trypan blue, and the cells were counted in a haeinocytometer. The inoculation densities were 2·10^5/10 cm^2 for monolayer and 2·10^5/30 μl for micromasses. The micromass cultures were kept for 1 hour in the incubator before 2 ml growth medium was added.
All the cultures were kept at 37° C. in a humidified atmosphere of 5% CO2, 95% air. All culture media were supplemented with 50 μg/ml ascorbate. To analyze the collagen types, 60 μg/ml beta-aminopropionitrile (beta-APN) was added to the culture medium. During cell isolation and inoculation, no ascorbate was used to increase plating efficiency. No antibiotics and no beta-glycerophosphate were added. The media were completely changed every 48 hours (60 mm culture dish 5 ml; 35 mm culture dish 2 ml).
The Böhringer Cell Proliferation Kit I (MTT) was used for the assay, but we used a different solvent to dissolve the MTT crystals.
Originally, Mosmann, 1983 described the general principle involved in the detection of cell growth/cell death as indicated by the conversion of the tetrazolium salt (MTT) to the colored formazan by mitochondrial dehydrogenases. The concentration of this can then be measured spectrophotoinetrically.
1. MTT Stock (5 mg/ml in sterile PBS) from Böhringer was diluted […] with complete growth medium and sterile filtering.
2. The cells were incubated in 2 ml/10 cm^2 MTT solution at 37° C. for 3 hours.
3. The supernatant was carefully removed.
4. 4 ml/10 cm^2 dimethylsulphoxide (DMSO) was added.
5. The dishes were placed on a shaker until the crystals were completely dissolved.
6. The absorbance of the supernatant (3 aliquots/dish) was read at 550 nm versus DMSO.
If the absorbance was higher than 1, the samples were diluted with DMSO.
The mean value and the standard deviation consisted of n independent experiments. The values for the individual experiments were gained from the mean of 3 aliquots of the same dish. To compare the treatment, contrasts analysis of variance models were evaluated.

The structures appear in SMILES notation.

For the compound `CN(CC(=O)O)C(=N)N` [creatine], the “wet weight of femora (FIG. 5)” value is on record as “control (FIG. 5) had significantly lower wet weights than” in the data set on embryonic rat femora (10 mM creatine vs control, p<0.0005) and “control (FIG. 5) had significantly lower wet weights than” in the data set on embryonic rat femora (20 mM creatine vs control, p<0.001). The “metabolic activity (MTT) (FIG. 2)” value in data set [1] (10 mM and 20 mM creatine vs control, 1 week) is “all groups were similar”; in data set [1] (10 mM creatine vs control, 2 weeks, p<0.015) it was “control group was significantly lower than the 10 mM creatine”; in data set [1] (10 mM creatine vs control, 3 weeks, p<0.001), “significantly higher than the control group”; in data set [1] (20 mM creatine vs control, 2 weeks, p<0.0025) it was “control group was significantly lower than the 10 mM creatine and the 20 mM creatine”; in data set [1] (20 mM creatine vs control, 3 weeks, p<0.001), “significantly higher than the control group”. For the same compound, the “metabolic activity measured by the MTT reaction” value in data set [1] (2 weeks, creatine groups vs control) was “slightly stimulated”. In addition, the MTT reaction result in data set [1] (3 weeks, creatine vs control) is given as “stimulated the MTT reaction”.

On to `N=C(N)NCCC(=O)O` [GPA, beta-guanidinopropionic acid], for which the “wet weight of femora (FIG. 5)” value was “not significantly different from the control” in the data set with embryonic rat femora (1 mM GPA vs control); “control (FIG. 5) had significantly lower wet weights than” with embryonic rat femora (5 mM GPA vs control, p<0.0005); “control (FIG. 5) had significantly lower wet weights than” in the data set on embryonic rat femora (10 mM GPA vs control, p<0.015). Also, in data set [1] (GPA-treated osteoblasts, summary), the “effects on the metabolism and the viability of the cells” value was “adverse effects on both the metabolism and the viability of the cells”. Moreover, the “metabolic activity measured by the MTT reaction” value in data set [1] (2 weeks, 10 mM GPA vs control) is on record as “lower values than the control”. Further, the MTT reaction result in data set [1] (3 weeks, 1 mM or 5 mM GPA vs control) was “lower values than the control”; in data set [1] (3 weeks, 10 mM GPA vs control) it was “comparable to the control”.
